Measured values: the NIST ThermoML archive (doi:10.1016/j.jct.2009.05.009)

Test: xn = mol fraction of the nth substance listed
Settings: 101.3 kPa, Liquid, Vibrating tube method

CCOS(=O)(=O)[O-].CCn1cc[n+](C)c1 [1-ethyl-3-methylimidazolium ethyl sulfate] + O
Settings	mass density [kg/m3]
293.15 K, x2 = 0	1242.4
293.15 K, x2 = 0.0514	1241.4
293.15 K, x2 = 0.13	1239.8
293.15 K, x2 = 0.1783	1238.8
293.15 K, x2 = 0.2168	1237.8
293.15 K, x2 = 0.2642	1236.4
293.15 K, x2 = 0.3054	1235
293.15 K, x2 = 0.3568	1233
293.15 K, x2 = 0.4008	1231.2
293.15 K, x2 = 0.4613	1228.1
293.15 K, x2 = 0.5002	1225.9
293.15 K, x2 = 0.5584	1221.8
293.15 K, x2 = 0.6124	1217.1
293.15 K, x2 = 0.6698	1210.7
293.15 K, x2 = 0.7125	1204.3
293.15 K, x2 = 0.7635	1194.2
293.15 K, x2 = 0.8006	1184.2
293.15 K, x2 = 0.8497	1165.4
293.15 K, x2 = 0.8963	1139.3
298.15 K, x2 = 0	1239.4
298.15 K, x2 = 0.0514	1238.3
298.15 K, x2 = 0.13	1236.8
298.15 K, x2 = 0.1783	1235.7
298.15 K, x2 = 0.2168	1234.7
298.15 K, x2 = 0.2642	1233.3
298.15 K, x2 = 0.3054	1232
298.15 K, x2 = 0.3568	1230
298.15 K, x2 = 0.4008	1228
298.15 K, x2 = 0.4613	1225.2
298.15 K, x2 = 0.5002	1222.9
298.15 K, x2 = 0.5584	1218.8
298.15 K, x2 = 0.6124	1213.9
298.15 K, x2 = 0.6698	1207.4
298.15 K, x2 = 0.7125	1200.8
298.15 K, x2 = 0.7635	1190.4
298.15 K, x2 = 0.8006	1180.5
298.15 K, x2 = 0.8497	1162.1
298.15 K, x2 = 0.8963	1135.6
303.15 K, x2 = 0	1236.3
303.15 K, x2 = 0.0514	1235.2
303.15 K, x2 = 0.13	1233.6
303.15 K, x2 = 0.1783	1232.6
303.15 K, x2 = 0.2168	1231.5
303.15 K, x2 = 0.2642	1230.2
303.15 K, x2 = 0.3054	1228.8
303.15 K, x2 = 0.3568	1226.9
303.15 K, x2 = 0.4008	1225
303.15 K, x2 = 0.4613	1222
303.15 K, x2 = 0.5002	1219.7
303.15 K, x2 = 0.5584	1215.6
303.15 K, x2 = 0.6124	1210.8
303.15 K, x2 = 0.6698	1204.1
303.15 K, x2 = 0.7125	1197.6
303.15 K, x2 = 0.7635	1187.1
303.15 K, x2 = 0.8006	1177.2
303.15 K, x2 = 0.8497	1158.8
303.15 K, x2 = 0.8963	1132.8
308.15 K, x2 = 0	1233.3
308.15 K, x2 = 0.0514	1232.2
308.15 K, x2 = 0.13	1230.6
308.15 K, x2 = 0.1783	1229.5
308.15 K, x2 = 0.2168	1228.5
308.15 K, x2 = 0.2642	1227.1
308.15 K, x2 = 0.3054	1225.8
308.15 K, x2 = 0.3568	1223.9
308.15 K, x2 = 0.4008	1221.9
308.15 K, x2 = 0.4613	1218.9
308.15 K, x2 = 0.5002	1216.6
308.15 K, x2 = 0.5584	1212.4
308.15 K, x2 = 0.6124	1207.6
308.15 K, x2 = 0.6698	1200.9
308.15 K, x2 = 0.7125	1194.3
308.15 K, x2 = 0.7635	1184
308.15 K, x2 = 0.8006	1173.6
308.15 K, x2 = 0.8497	1155.5
308.15 K, x2 = 0.8963	1129
313.15 K, x2 = 0	1230.2
313.15 K, x2 = 0.0514	1229.1
313.15 K, x2 = 0.13	1227.4
313.15 K, x2 = 0.1783	1226.3
313.15 K, x2 = 0.2168	1225.4
313.15 K, x2 = 0.2642	1223.9
313.15 K, x2 = 0.3054	1222.6
313.15 K, x2 = 0.3568	1220.7
313.15 K, x2 = 0.4008	1218.7
313.15 K, x2 = 0.4613	1215.6
313.15 K, x2 = 0.5002	1213.4
313.15 K, x2 = 0.5584	1209.2
313.15 K, x2 = 0.6124	1204.4
313.15 K, x2 = 0.6698	1197.6
313.15 K, x2 = 0.7125	1190.9
313.15 K, x2 = 0.7635	1180.6
313.15 K, x2 = 0.8006	1170.3
313.15 K, x2 = 0.8497	1152.3
313.15 K, x2 = 0.8963	1126
318.15 K, x2 = 0	1227.2
318.15 K, x2 = 0.0514	1226.1
318.15 K, x2 = 0.13	1224.4
318.15 K, x2 = 0.1783	1223.3
318.15 K, x2 = 0.2168	1222.3
318.15 K, x2 = 0.2642	1220.8
318.15 K, x2 = 0.3054	1219.5
318.15 K, x2 = 0.3568	1217.6
318.15 K, x2 = 0.4008	1215.6
318.15 K, x2 = 0.4613	1212.4
318.15 K, x2 = 0.5002	1210.1
318.15 K, x2 = 0.5584	1206
318.15 K, x2 = 0.6124	1201.1
318.15 K, x2 = 0.6698	1194.3
318.15 K, x2 = 0.7125	1187.6
318.15 K, x2 = 0.7635	1177.2
318.15 K, x2 = 0.8006	1167
318.15 K, x2 = 0.8497	1148.9
318.15 K, x2 = 0.8963	1123
323.15 K, x2 = 0	1224.1
323.15 K, x2 = 0.0514	1223
323.15 K, x2 = 0.13	1221.3
323.15 K, x2 = 0.1783	1220.1
323.15 K, x2 = 0.2168	1219.1
323.15 K, x2 = 0.2642	1217.6
323.15 K, x2 = 0.3054	1216.3
323.15 K, x2 = 0.3568	1214.4
323.15 K, x2 = 0.4008	1212.4
323.15 K, x2 = 0.4613	1209.3
323.15 K, x2 = 0.5002	1206.9
323.15 K, x2 = 0.5584	1202.8
323.15 K, x2 = 0.6124	1197.8
323.15 K, x2 = 0.6698	1191
323.15 K, x2 = 0.7125	1184.3
323.15 K, x2 = 0.7635	1173.7
323.15 K, x2 = 0.8006	1163.5
323.15 K, x2 = 0.8497	1145.2
323.15 K, x2 = 0.8963	1119.6
328.15 K, x2 = 0	1221.1
328.15 K, x2 = 0.0514	1220
328.15 K, x2 = 0.13	1218.2
328.15 K, x2 = 0.1783	1216.9
328.15 K, x2 = 0.2168	1216
328.15 K, x2 = 0.2642	1214.6
328.15 K, x2 = 0.3054	1213.2
328.15 K, x2 = 0.3568	1211.2
328.15 K, x2 = 0.4008	1209.3
328.15 K, x2 = 0.4613	1206.1
328.15 K, x2 = 0.5002	1203.8
328.15 K, x2 = 0.5584	1199.6
328.15 K, x2 = 0.6124	1194.6
328.15 K, x2 = 0.6698	1187.7
328.15 K, x2 = 0.7125	1181
328.15 K, x2 = 0.7635	1170.2
328.15 K, x2 = 0.8006	1160
328.15 K, x2 = 0.8497	1141.6
328.15 K, x2 = 0.8963	1116.4
333.15 K, x2 = 0	1218.1
333.15 K, x2 = 0.0514	1216.9
333.15 K, x2 = 0.13	1215.2
333.15 K, x2 = 0.1783	1213.9
333.15 K, x2 = 0.2168	1212.9
333.15 K, x2 = 0.2642	1211.5
333.15 K, x2 = 0.3054	1210.1
333.15 K, x2 = 0.3568	1208.2
333.15 K, x2 = 0.4008	1206.2
333.15 K, x2 = 0.4613	1203.1
333.15 K, x2 = 0.5002	1200.7
333.15 K, x2 = 0.5584	1196.4
333.15 K, x2 = 0.6124	1191.4
333.15 K, x2 = 0.6698	1184.3
333.15 K, x2 = 0.7125	1177.5
333.15 K, x2 = 0.7635	1166.8
333.15 K, x2 = 0.8006	1156.6
333.15 K, x2 = 0.8497	1138.3
333.15 K, x2 = 0.8963	1112.9
338.15 K, x2 = 0	1215.1
338.15 K, x2 = 0.0514	1213.8
338.15 K, x2 = 0.13	1212.1
338.15 K, x2 = 0.1783	1210.9
338.15 K, x2 = 0.2168	1209.9
338.15 K, x2 = 0.2642	1208.4
338.15 K, x2 = 0.3054	1207
338.15 K, x2 = 0.3568	1205.1
338.15 K, x2 = 0.4008	1203.1
338.15 K, x2 = 0.4613	1200
338.15 K, x2 = 0.5002	1197.6
338.15 K, x2 = 0.5584	1193.2
338.15 K, x2 = 0.6124	1188.1
338.15 K, x2 = 0.6698	1180.9
338.15 K, x2 = 0.7125	1173.9
338.15 K, x2 = 0.7635	1163.5
338.15 K, x2 = 0.8006	1153.2
338.15 K, x2 = 0.8497	1134.9
338.15 K, x2 = 0.8963	1109.3
343.15 K, x2 = 0	1212
343.15 K, x2 = 0.0514	1210.7
343.15 K, x2 = 0.13	1208.9
343.15 K, x2 = 0.1783	1207.8
343.15 K, x2 = 0.2168	1206.7
343.15 K, x2 = 0.2642	1205.3
343.15 K, x2 = 0.3054	1203.9
343.15 K, x2 = 0.3568	1201.9
343.15 K, x2 = 0.4008	1200
343.15 K, x2 = 0.4613	1196.8
343.15 K, x2 = 0.5002	1194.3
343.15 K, x2 = 0.5584	1189.9
343.15 K, x2 = 0.6124	1184.7
343.15 K, x2 = 0.6698	1177.4
343.15 K, x2 = 0.7125	1170.4
343.15 K, x2 = 0.7635	1159.9
343.15 K, x2 = 0.8006	1149.5
343.15 K, x2 = 0.8497	1131.3
343.15 K, x2 = 0.8963	1106
